# Test results from US6177592A, “Compounds” (priority 1997, dated 2001).
# Legend:
# [1] = test system: HL-60 cells (promyelocytic leukemia cell); assay: Viable cell numbers of HL-60 (growth inhibition of cancer cells); format: cell-based, human
# Description: (1) Each 0.5 ml of 0.2 mM CM, 0.8 mM CM or 1.6 mM CM was added to 4.5 ml of RPMI 1640 medium containing 10% of fetal calf serum and 2.5×10^5HL-60 cells (promyelocytic leukemia cell) (ATCC CCL-240) and incubated at 37° C. for 24 hours or 48 hours in the presence of 5% carbon dioxide gas and the numbers of viable cells were measured.
# In FIG. 28, open square (.quadrature.) indicates the case where CM is added followed by culturing for 24 hours; black square (.box-solid.) indicates the case where CM is added followed by culturing for 48 hours; open triangle (Δ) indicates the case where no sample was added followed by culturing for 24 hours; and black triangle (.tangle-solidup.) indicates the case where no sample was added followed by culturing for 48 hours.
# (4) HL-60 cells (ATCC CCL240) which were incubated at 37° C. in an RPMI 1640 medium (manufactured by Nissui) containing 10% of fetal calf serum (manufactured by Gibco) treated at 56° C. for 30 minutes were suspended in the above medium to make the concentration 2.5×10^5cells/4.5 ml. To this suspension was added 0.5 ml of 100 μM aqueous solution of GM (final concentration: 10 μM) followed by incubating at 37° C. in the presence of 5% carbon dioxide gas for 24 hours, 48 hours and 72 hours. […]
# [2] = test system: DSEK cell (fibroblast strain from synovial membrane); assay: Growth of DSEK synovial fibroblasts (WST-1) and apoptosis; format: cell-based, human (patient suffering from chronic articular rheumatism)
# Description: DSEK cell (cell strain stored at the Department of Second Internal Medicine, Integrated Medical Center, Saitama College of Medicine) which was a fibroblast strain established from synovial membrane of a patient suffering from chronic articular rheumatism was incubated in an Iscob-modified Dulbecco medium (IMDM, manufactured by Gibco, 12440-053) containing 10% fetal bovine serum (FBS, manufactured by Gibco, 26140-079) at 37° C. in the presence of 5% carbon dioxide gas until confluent and then the cells were collected by peeling off with trypsin-EDTA (manufactured by Gicbo, 25300-054). The cells were suspended in the above-mentioned medium until 25,000 cells/ml were resulted and each 100 μl was placed in each well of a 96-well microtiter plate. After five days from incubation when the state of confluence was almost achieved, the medium was discarded and then the above-mentioned medium containing 2.5, 5, 10, 20 or 30 μM of GM was added. After incubating for 24, 48 or 72 hours, 10 μl of a premix WST-1 (manufactured by Takara Shuzo, MK400) was added thereto followed by subjecting to a reaction at 37° C. for four hours. The value obtained by deducting the absorbance at 650 nm (A650) from that at 450 nm (A450) was defined as a degree of growth of cell.
# Fas antigen = Fas antigen expression in Jurkat cells; format: cell-based, human; details: 1-10 μM, 24 hours
# Description: (2) Influence of GM on Fas antigen expression (productive induction) in Jurkat cells and Molt-3 cells was measured as follows. In a 10% FCS-containing RPMI 1640 medium containing 0, 1, 5, 10 or 20 μM of cyclopentenone or GM, 5×10^5 cell/ml of Jurkat cells or Molt-3 cells were incubated at 37° C. for 24 hours in the presence of 5% of CO2 and then subjected to a two-step immunostaining using an anti-Fas antibody (manufactured by Boehringer-Ingelheim) in accordance with a method of Munker [Munker, R.: Ann. Hematol., volume 70, pages 15-17 (1995)].
# Fluorescence intensity of the stained 1×10^4 cells was measured by a flow cytometer (Orthocytron; manufactured by Ortho Diagnostic Systems) and ratio of the cell showing a predetermined or higher fluorescence intensity which were Fas antigen-expressing cells was calculated.
# NIH 3T3 = assay: Colony formation of NIH 3T3 cells; format: cell-based; details: 5 μM GM, nine days; control 91.7 ± 11.9
# Description: NIH 3T3 cells were incubated at 37° C. under the condition of 5% CO2 in a Dulbecco-modified Eagle's medium containing 10% of calf serum.
# (2) NIH 3T3 cells, the cells strains into which control vector was introduced and the cell strains into which E7 was introduced were made to grow to an extent of 50-70% confluence in a Dulbecco-modified Eagle's medium containing 10% of calf serum using a 100 mm-tissue culture plate and washed with PBS and the cells were peeled off with a 0.25% trypsin-EDTA solution and suspended in 5 ml of Dulbecco-modified Eagle's medium containing 10% of calf serum.
# A part of the suspension was taken out and cell density was counted by a Neubauer's hemocytometer. Based upon the resulting data, it was diluted with a Dulbecco-modified Eagle's medium containing 10% of calf serum and planted on a tissue culture plate having a diameter of 60 mm to make 200 cells/plate and incubation was started in 3 ml of the medium. After 24 hours from the initiation of the incubation, GM was added thereto to make its concentration 5 μM. After additional 24 hours, the medium was exchanged with a fresh one and GM was added thereto to make its concentration 5 μM.
# After that, the medium was exchanged with a fresh one every two to three days followed by adding GM thereto to make its concentration 5 μM. […]
Structure (SMILES),"inhibition activity of the growth of cancer cells ([1]; 0.5 ml of 0.2, 0.8 or 1.6 mM CM added to 4.5 ml, 24 or 48 hours)","degree of growth of cell (A450 - A650) ([2]; 2.5 μM, 24 hours, 0 μM 0.846)","degree of growth of cell (A450 - A650) ([2]; 2.5 μM, 48 hours, 0 μM 1.270)","degree of growth of cell (A450 - A650) ([2]; 5 μM, 24 hours, 0 μM 0.846)","degree of growth of cell (A450 - A650) ([2]; 5 μM, 48 hours, 0 μM 1.270)",production of apoptic bodies ([2]; 10 μM),"degree of growth of cell (A450 - A650) ([2]; 10 μM, 24 hours, 0 μM 0.846)","degree of growth of cell (A450 - A650) ([2]; 10 μM, 48 hours, 0 μM 1.270)","degree of growth of cell (A450 - A650) ([2]; 20 μM, 24 hours, 0 μM 0.846)","degree of growth of cell (A450 - A650) ([2]; 20 μM, 48 hours, 0 μM 1.270)","degree of growth of cell (A450 - A650) ([2]; 30 μM, 24 hours, 0 μM 0.846)","degree of growth of cell (A450 - A650) ([2]; 30 μM, 48 hours, 0 μM 1.270)",apoptosis-inducing and growth-inhibiting action to synovial cells (in words) ([2]; Example 11),"minimal effective concentration ([2]; Homo sapiens, Fibroblast, 24 and 48 hours, vs control, read-out: concentration at which cell growth was inhibited) [µM]",ratio of Fas antigen-expressing cells (Fas antigen),Numbers of Colonies (Mean Value ± SD) (NIH 3T3),"viable cell numbers and viability of cells ([1]; 10 μM GM, 24, 48 and 72 hours, vs water control)"
N[C@@H](CSC1C=C(O)C(=O)C1)C(=O)O (some centres unmarked) [CM],intensive inhibition activity of the growth of cancer cells,,,,,,,,,,,,,,,,
"N[C@@H](CCC(=O)N[C@@H](CSC1C=C(O)C(=O)C1)C(=O)NCC(=O)O)C(=O)O (some centres unmarked) [GM, 2-hydroxy-4-glutathion-S-yl-2-cyclopenten-1-one]",,0.768,1.133,0.621,0.942,production of apoptic bodies was noted,0.420,0.486,0.238,0.185,0.241,0.196,apoptosis-inducing action and growth-inhibiting action to synovial cells,≥ 5,the ratio of Fas antigen-expressing cells increased on a concentration-dependent manner,79.0 ± 2.6,significantly reduced
